Laboratory results reported in US20020187998A1, “Local ophthalmic agent for treatment of ocular inflammation” (Sucampo AG, priority 2001, published 2002).

Columns and labels:
Type in all cases: in vivo, human
[1] = system: progressive Mooren's ulcer; assay: Patient case, FK506 eye drops (Example 4); conditions: 0.06% FK506 eye drops three times a day, one patient
Text: A patient suffering from progressive Mooren's ulcer was instilled with 0.06% FK506 eye drops three times a day.

[2] = system: chronic nummular keratitis; assay: Patient case, FK506 eye drops (Example 5); conditions: 0.06% FK506 eye drops three times a day, one patient
Text: A patient suffering from chronic nummular keratitis was instilled with 0.06% FK506 eye drops three times a day.

Thygeson keratitis = assay: Patient case, FK506 eye drops (Example 6); conditions: 0.06% FK506 eye drops three times a day
[3] = system: inflammations caused by injury after penetrating keratoplasty, history of steroid glaucoma and chronic rejection; assay: Patient case, FK506 eye drops after penetrating keratoplasty (Example 7); conditions: 0.06% FK506 eye drops three times a day
Text: As a result, the progression of inflammations caused by injury was arrested and such effects were maintained at 34 weeks later.

[4] = system: inflammations caused by foreign bodies (cat hair, cat dander, pollens of a tree, ragweed or grass) instilled in the eye; assay: Itching on the eye after ocular instillation of foreign bodies, 3 hours after FK506 eye drops (Example 1); conditions: foreign bodies 3 hours after instillation, graded 5 minutes later, score 0-4, FIG. 1
Text: In a total of four groups each having 30 persons, FK506 eye drops (0.01%, 0.06% and 0.1%) were instilled in the respective experimental groups, and placebo was instilled in the control group. Three hours after the ocular instillation, various foreign bodies (cat hair, cat dander, and pollens of a tree, ragweed or grass) were ocularly instilled in both the experimental groups and the control group, thus causing inflammations. Five minutes later, itching on the eye was graded according to five-rank scores (0-4). The decreases from the score (baseline) in instilling only foreign bodies were calculated.

[5] = system: progressive corneal ulcer caused by pemphigoid; assay: Patient case, FK506 eye drops (Example 3); conditions: 0.06% FK506 eye drops three times a day, one patient
Text: A patient suffering from progressive corneal ulcer caused by pemphigoid was instilled with 0.06% FK506 eye drops three times a day.

[6] = system: inflammations caused by foreign bodies (cat hair, cat dander, pollens of a tree, ragweed or grass) instilled in the eye; assay: Conjunctival hyperemia and chemosis after ocular instillation of foreign bodies, 16 hours after final instillation (Example 2); conditions: 0.1% FK506 eye drops once a day for one week
Experimental: FK506 was ocularly instilled in the subjects once a day for one week, and the same amount of placebo was ocularly instilled in the control group. At 16 hours after the final ocular instillation, various foreign bodies (cat hair, cat dander, and pollens of a tree, ragweed or grass) were ocularly instilled in both the experimental groups and the control group, thus causing the inflammations. Ten minutes later, conjunctival hyperemia and chemosis were graded according to five-rank scores (0-4). The changes from the score (baseline) in instilling only foreign bodies were calculated.

[7] = system: penetrating keratoplasty due to keratoconus; assay: Patient case, FK506 eye drops after penetrating keratoplasty due to keratoconus (Example 9); conditions: 0.06% FK506 eye drops three times a day
[8] = system: blepharokeratoconjunctivitis; assay: Patient case, FK506 eye drops (Example 8); conditions: 0.06% FK506 eye drops three times a day
[9] = one patient without conventional therapy

C=CC[C@@H]1/C=C(\C)C[C@H](C)C[C@H](OC)[C@H]2O[C@@](O)(C(=O)C(=O)N3CCCC[C@H]3C(=O)O[C@H](/C(C)=C/[C@@H]3CC[C@@H](O)[C@H](OC)C3)[C@H](C)[C@@H](O)CC1=O)[C@H](C)C[C@@H]2OC [FK506, 17-allyl-1,14-dihydroxy-12-[2-(4-hydroxy-3-methoxycyclohexyl)-1-methylvinyl]-23,25-dimethoxy-13,19,21,27-tetramethyl-11,28-dioxa-4-azatricyclo [22.3.1.0^4,9]octacos-18-ene-2,3,10,16-tetraone]
improving effects [1]: significant improving effects were observed
time at which effects were maintained [1]: 41 weeks
improving effects [2]: significant improving effects were observed
time at which effects were maintained [2]: 43 weeks
time until improving effects were observed [2]: two
time at which effects were maintained (Thygeson keratitis; one patient): 41 weeks
time until improving effects were observed (Thygeson keratitis; one patient): three
improving effects (Thygeson keratitis; [9]): significant improving effects were observed
progression of inflammations caused by injury ([3]; one patient): arrested
time at which effects were maintained ([3]; one patient): 34 weeks
intraocular pressure increase ([3]; patient with history of steroid glaucoma): no intraocular pressure increase was observed
decreases of itching score from the baseline, compared with placebo ([4]; 0.01% FK506 eye drops): decreases of itching were greater
decreases of itching score from the baseline, compared with placebo ([4]; 0.06% FK506 eye drops): decreases of itching were greater
decreases of itching score from the baseline, compared with placebo ([4]; 0.1% FK506 eye drops): decreases of itching were greater
improving effects [5]: significant improving effects were observed
time at which effects were maintained [5]: 43 weeks
duration of ocular anti-inflammatory effects (antiedemic effect and anti-flare effect) [6]: at least 16 hours
Changes of chemosis scores from the baseline, mean ± S.E. ([6]; challenge 16 hours after final instillation, graded 10 minutes later, score 0-4, p < 0.001): −0.30 ± 0.07
Changes of conjunctival hyperemia scores from the baseline, mean ± S.E. ([6]; challenge 16 hours after final instillation, graded 10 minutes later, score 0-4, p < 0.01): −0.51 ± 0.07
time at which effects were maintained ([7]; one patient): 25 weeks
improving effects [7, 9]: significant improving effects were observed
time at which effects were maintained ([8]; one patient): 18 weeks
time until improving effects were observed ([8]; one patient): two
improving effects [8, 9]: significant improving effects were observed
